# Source: ChEMBL document CHEMBL1909046, “DrugMatrix in vitro pharmacology data”
# pIC50, pKi: −log10 of the molar value.
# What was measured:
# [1] = biological target: T1, Alpha-1B adrenergic receptor (Rattus norvegicus, UniProt P15823); experiment: DRUGMATRIX: Alpha-1B adrenergic receptor radioligand binding (ligand: prazosin); type: cell membranes, Wistar, Liver, Membrane; settings: Not Active = under 50% inhibition at 10 µM
# T1 sequence (P15823 whole entry): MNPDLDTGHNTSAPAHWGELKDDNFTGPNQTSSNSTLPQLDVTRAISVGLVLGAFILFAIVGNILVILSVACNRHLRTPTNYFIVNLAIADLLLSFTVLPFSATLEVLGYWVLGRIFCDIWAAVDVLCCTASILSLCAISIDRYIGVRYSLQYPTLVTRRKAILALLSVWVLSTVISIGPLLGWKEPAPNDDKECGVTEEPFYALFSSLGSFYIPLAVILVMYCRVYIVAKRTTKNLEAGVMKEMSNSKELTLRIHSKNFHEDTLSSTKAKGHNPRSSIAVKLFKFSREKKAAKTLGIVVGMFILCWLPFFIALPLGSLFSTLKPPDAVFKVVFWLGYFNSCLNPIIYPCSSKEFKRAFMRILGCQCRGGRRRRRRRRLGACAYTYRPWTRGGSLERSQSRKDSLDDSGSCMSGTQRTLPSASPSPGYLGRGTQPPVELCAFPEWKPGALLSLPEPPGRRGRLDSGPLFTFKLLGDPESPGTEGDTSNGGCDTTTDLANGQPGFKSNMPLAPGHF
# [2] = biological target: 5-hydroxytryptamine receptor 2B (Homo sapiens, UniProt P41595); type: cell membranes, CHO-K1, Membrane; settings: for pIC50: read-out: IC50; for pKi: read-out: Ki; as to all read-outs here: in other assays of this panel Not Active means under 50% inhibition at 10 µM
# 5-hydroxytryptamine receptor 2B, sequence (P41595 whole entry): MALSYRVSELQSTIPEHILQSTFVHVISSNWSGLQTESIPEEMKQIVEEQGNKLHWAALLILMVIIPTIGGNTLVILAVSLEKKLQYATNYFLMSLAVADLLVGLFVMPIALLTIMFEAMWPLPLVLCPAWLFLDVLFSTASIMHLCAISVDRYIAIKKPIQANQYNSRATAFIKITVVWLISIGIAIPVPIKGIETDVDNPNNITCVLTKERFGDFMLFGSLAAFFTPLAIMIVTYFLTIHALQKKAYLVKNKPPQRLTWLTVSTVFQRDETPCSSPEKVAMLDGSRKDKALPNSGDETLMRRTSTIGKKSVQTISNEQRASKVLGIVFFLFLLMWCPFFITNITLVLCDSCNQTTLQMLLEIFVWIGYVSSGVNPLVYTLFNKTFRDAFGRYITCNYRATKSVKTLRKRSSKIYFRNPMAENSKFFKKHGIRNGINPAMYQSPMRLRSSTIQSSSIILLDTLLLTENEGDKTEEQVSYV
# [3] = DRUGMATRIX: Glutamate, AMPA radioligand binding (ligand: [3H] AMPA); type: cell membranes, Rattus norvegicus, Wistar, Cerebral cortex, Membrane; settings: Not Active = under 50% inhibition at 10 µM
# [4] = DRUGMATRIX: Glutamate, NMDA, Agonism radioligand binding (ligand: [3H] CGP-39653); type: cell membranes, Rattus norvegicus, Wistar, Cerebral cortex, Membrane; settings: Not Active = under 50% inhibition at 10 µM
# [5] = biological target: Nitric oxide synthase 1 (Rattus norvegicus, UniProt P29476); type: tissue-based, Cerebellum; also: in other assays of this panel Not Active means under 50% inhibition at 10 µM
# Nitric oxide synthase 1, sequence (P29476 whole entry): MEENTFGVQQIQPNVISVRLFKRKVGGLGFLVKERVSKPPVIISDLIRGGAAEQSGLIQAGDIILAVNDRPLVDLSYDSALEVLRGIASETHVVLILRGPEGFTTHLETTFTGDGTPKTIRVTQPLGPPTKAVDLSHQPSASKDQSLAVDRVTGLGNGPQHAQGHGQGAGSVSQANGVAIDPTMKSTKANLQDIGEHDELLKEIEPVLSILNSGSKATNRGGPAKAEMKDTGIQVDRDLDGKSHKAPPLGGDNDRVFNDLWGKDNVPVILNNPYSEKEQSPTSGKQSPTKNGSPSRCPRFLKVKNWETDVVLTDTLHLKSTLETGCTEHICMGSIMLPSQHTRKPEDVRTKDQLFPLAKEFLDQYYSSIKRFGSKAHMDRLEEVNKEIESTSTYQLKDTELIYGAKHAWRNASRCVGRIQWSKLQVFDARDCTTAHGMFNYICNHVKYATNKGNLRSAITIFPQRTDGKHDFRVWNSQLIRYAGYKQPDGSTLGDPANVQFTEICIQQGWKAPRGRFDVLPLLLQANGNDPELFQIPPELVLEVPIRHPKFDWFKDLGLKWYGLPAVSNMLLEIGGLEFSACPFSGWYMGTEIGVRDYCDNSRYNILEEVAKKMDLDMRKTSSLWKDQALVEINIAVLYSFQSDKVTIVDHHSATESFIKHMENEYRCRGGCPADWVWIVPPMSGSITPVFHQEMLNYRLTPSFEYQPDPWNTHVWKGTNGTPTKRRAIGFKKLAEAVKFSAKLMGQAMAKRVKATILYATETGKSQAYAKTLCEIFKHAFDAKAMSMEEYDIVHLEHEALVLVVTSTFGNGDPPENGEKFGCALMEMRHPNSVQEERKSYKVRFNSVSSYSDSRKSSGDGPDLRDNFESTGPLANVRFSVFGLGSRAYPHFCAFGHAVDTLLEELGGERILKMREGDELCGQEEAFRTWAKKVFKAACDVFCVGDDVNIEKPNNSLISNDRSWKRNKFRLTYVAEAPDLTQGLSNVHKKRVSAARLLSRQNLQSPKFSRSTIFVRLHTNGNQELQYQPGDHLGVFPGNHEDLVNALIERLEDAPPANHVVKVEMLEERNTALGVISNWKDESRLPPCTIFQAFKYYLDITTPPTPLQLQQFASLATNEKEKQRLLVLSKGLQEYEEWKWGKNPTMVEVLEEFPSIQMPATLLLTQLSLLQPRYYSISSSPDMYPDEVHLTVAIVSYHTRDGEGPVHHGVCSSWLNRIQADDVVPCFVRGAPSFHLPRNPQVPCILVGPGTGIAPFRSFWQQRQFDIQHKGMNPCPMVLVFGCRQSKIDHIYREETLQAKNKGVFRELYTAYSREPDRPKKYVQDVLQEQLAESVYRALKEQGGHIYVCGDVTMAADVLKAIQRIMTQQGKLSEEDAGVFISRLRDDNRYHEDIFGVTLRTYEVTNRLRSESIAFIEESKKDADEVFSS
# [6] = biological target: cGMP-specific 3',5'-cyclic phosphodiesterase (Homo sapiens, UniProt O76074); experiment: DRUGMATRIX: Phosphodiesterase PDE5 enzyme inhibition (substrate: [3H]cGMP + cGMP); type: tissue-based; settings: platelet; Not Active = under 50% inhibition at 10 µM
# [7] = biological target: Protein kinase C alpha type (Homo sapiens, UniProt P17252); type: cell-based; settings: sf9;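 also: inhibition of PKCalpha kinase activity measured in an enzyme assay with histone as the phosphorylation substrate; in other assays of this panel Not Active means under 50% inhibition at 10 µM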
# [8] = biological target: T2, Receptor-type tyrosine-protein phosphatase C (Homo sapiens, UniProt P08575); set-up: species or system Escherichia coli;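 also: inhibition of CD45 enzyme activity measured using DiFMUP as substrate; in other assays of this panel Not Active means under 50% inhibition at 10 µM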
# T2 sequence (P08575 whole entry): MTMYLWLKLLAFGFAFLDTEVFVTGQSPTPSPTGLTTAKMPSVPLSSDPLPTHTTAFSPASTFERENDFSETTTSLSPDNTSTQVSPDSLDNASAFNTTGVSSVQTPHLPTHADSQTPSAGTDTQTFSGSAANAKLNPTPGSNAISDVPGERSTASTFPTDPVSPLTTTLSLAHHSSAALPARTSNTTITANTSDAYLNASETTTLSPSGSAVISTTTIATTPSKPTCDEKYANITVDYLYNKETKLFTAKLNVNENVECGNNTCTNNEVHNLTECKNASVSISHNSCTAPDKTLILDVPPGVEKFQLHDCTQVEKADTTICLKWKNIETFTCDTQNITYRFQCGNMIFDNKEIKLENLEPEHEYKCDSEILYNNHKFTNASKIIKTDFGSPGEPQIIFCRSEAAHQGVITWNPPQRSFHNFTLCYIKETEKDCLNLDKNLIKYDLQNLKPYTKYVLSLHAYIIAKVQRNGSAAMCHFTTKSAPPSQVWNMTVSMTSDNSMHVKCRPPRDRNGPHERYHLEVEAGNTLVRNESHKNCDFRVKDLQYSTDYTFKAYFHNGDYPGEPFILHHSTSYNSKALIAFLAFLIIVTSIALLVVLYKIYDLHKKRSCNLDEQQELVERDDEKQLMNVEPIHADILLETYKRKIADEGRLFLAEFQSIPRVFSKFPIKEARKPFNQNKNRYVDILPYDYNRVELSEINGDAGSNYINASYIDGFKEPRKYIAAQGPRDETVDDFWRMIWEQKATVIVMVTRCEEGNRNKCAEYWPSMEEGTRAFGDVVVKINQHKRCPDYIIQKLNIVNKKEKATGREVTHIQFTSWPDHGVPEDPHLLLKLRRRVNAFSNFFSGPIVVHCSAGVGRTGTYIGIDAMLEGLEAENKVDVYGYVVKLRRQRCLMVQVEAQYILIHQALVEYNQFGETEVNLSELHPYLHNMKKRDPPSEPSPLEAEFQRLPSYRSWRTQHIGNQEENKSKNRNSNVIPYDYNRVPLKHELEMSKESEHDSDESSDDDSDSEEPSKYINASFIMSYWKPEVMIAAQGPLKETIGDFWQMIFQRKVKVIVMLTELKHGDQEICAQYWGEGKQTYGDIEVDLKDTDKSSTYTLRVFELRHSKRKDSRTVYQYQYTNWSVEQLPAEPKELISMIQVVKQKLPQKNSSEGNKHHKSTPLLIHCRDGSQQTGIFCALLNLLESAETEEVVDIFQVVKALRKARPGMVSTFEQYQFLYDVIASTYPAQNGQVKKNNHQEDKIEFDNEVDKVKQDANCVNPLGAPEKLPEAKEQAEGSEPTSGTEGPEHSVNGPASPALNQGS
# [9] = biological target: Cytochrome P450 2E1 (Homo sapiens, UniProt P05181); settings: bti-tn-5b1-4; also: in other assays of this panel Not Active means under 50% inhibition at 10 µM
# Cytochrome P450 2E1, sequence (P05181 whole entry): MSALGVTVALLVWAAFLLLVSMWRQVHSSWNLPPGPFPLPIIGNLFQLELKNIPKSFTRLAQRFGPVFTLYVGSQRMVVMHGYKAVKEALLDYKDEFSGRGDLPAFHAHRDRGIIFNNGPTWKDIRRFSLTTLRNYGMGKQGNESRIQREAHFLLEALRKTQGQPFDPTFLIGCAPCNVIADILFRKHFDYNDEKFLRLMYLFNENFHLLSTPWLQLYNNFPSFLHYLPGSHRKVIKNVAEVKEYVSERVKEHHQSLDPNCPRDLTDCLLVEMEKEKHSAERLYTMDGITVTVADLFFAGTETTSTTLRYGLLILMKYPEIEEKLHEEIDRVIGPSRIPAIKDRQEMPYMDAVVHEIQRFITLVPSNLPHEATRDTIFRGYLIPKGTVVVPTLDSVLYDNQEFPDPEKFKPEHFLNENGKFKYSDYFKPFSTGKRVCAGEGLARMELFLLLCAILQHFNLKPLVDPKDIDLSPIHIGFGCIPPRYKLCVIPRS
Molecule,IC50 [1],IC50 ([2]; cho-k1),IC50 [3],Ki [3],IC50 [4],Ki [4],IC50 [5],IC50 [6],IC50 [7],IC50 [8],IC50 [9],Ki [9],pIC50 [2],pKi [2],Ki [1],Ki ([2]; cho-k1),Ki [5],Ki [6],Ki [7],Ki [8]
C[C@@H]1CN(c2c(F)c(N)c3c(=O)c(C(=O)O)cn(C4CC4)c3c2F)C[C@H](C)N1 [SPARFLOXACIN],Not Active,Not Active,Not Active,Not Active,Not Active,Not Active,Not Active,Not Active,Not Active,Not Active,Not Active,Not Active,–,–,–,–,–,–,–,–
CC1(C)O[C@@H]2C[C@H]3[C@@H]4CCC5=CC(=O)C=C[C@]5(C)[C@@]4(F)[C@@H](O)C[C@]3(C)[C@]2(C(=O)CO)O1 [TRIAMCINOLONE ACETONIDE],Not Active,Not Active,Not Active,Not Active,Not Active,Not Active,Not Active,Not Active,Not Active,Not Active,Not Active,Not Active,–,–,–,–,–,–,–,–
CSc1ccc(/C=C2/C(C)=C(CC(=O)O)c3cc(F)ccc32)cc1 [SULINDAC SULFIDE],Not Active,Not Active,Not Active,Not Active,Not Active,Not Active,Not Active,Not Active,Not Active,Not Active,Not Active,Not Active,–,–,–,–,–,–,–,–
Nc1c2c(nc3ccccc13)CCCC2 [TACRINE],Not Active,Not Active,Not Active,Not Active,Not Active,Not Active,Not Active,Not Active,Not Active,Not Active,Not Active,Not Active,–,–,–,–,–,–,–,–
N[C@@H](Cc1ccc(O)c(O)c1)C(=O)O [LEVODOPA],Not Active,Not Active,Not Active,Not Active,Not Active,Not Active,Not Active,Not Active,Not Active,Not Active,Not Active,Not Active,–,–,–,–,–,–,–,–
O=NN(CCCl)C(=O)NC1CCCCC1 [LOMUSTINE],Not Active,Not Active,Not Active,Not Active,Not Active,Not Active,Not Active,Not Active,Not Active,Not Active,Not Active,Not Active,–,–,–,–,–,–,–,–
Cc1c(C)c2c(c(C)c1O)CCC(C)(COc1ccc(CC3SC(=O)NC3=O)cc1)O2 (stereo not drawn) [TROGLITAZONE],Not Active,–,Not Active,Not Active,Not Active,Not Active,Not Active,Not Active,Not Active,Not Active,Not Active,Not Active,5.88,6.08,–,–,–,–,–,–
Cc1cccc(N(C)C(=S)Oc2ccc3ccccc3c2)c1 [TOLNAFTATE],Not Active,–,Not Active,Not Active,Not Active,Not Active,Not Active,Not Active,Not Active,Not Active,Not Active,Not Active,5.70,5.89,–,–,–,–,–,–
NC[C@H]1CC[C@H](C(=O)O)CC1 [TRANEXAMIC ACID],Not Active,Not Active,Not Active,Not Active,Not Active,Not Active,Not Active,Not Active,Not Active,Not Active,Not Active,Not Active,–,–,–,–,–,–,–,–
CC[C@@H](CO)NC(=O)[C@@H]1C=C2c3cccc4[nH]cc(c34)C[C@H]2N(C)C1 [METHYLERGONOVINE],Not Active,–,Not Active,Not Active,Not Active,Not Active,Not Active,Not Active,Not Active,Not Active,Not Active,Not Active,8.82,9.02,–,–,–,–,–,–
c1ccc([C@H]2CN3CCSC3=N2)cc1 [LEVAMISOLE],Not Active,Not Active,Not Active,Not Active,Not Active,Not Active,Not Active,Not Active,Not Active,Not Active,Not Active,Not Active,–,–,–,–,–,–,–,–
CC(C)(C)NC(=O)[C@@H]1C[C@@H]2CCCC[C@@H]2CN1C[C@@H](O)[C@H](Cc1ccccc1)NC(=O)[C@H](CC(N)=O)NC(=O)c1ccc2ccccc2n1,Not Active,Not Active,Not Active,Not Active,Not Active,Not Active,Not Active,Not Active,Not Active,Not Active,Not Active,Not Active,–,–,–,–,–,–,–,–
Nc1nc2nc[nH]c2c(=S)[nH]1 [THIOGUANINE],Not Active,Not Active,Not Active,Not Active,Not Active,Not Active,Not Active,Not Active,Not Active,Not Active,Not Active,Not Active,–,–,–,–,–,–,–,–
SODIUM NITROPRUSSIDE,Not Active,Not Active,Not Active,Not Active,Not Active,Not Active,Not Active,Not Active,Not Active,Not Active,Not Active,Not Active,–,–,Not Active,Not Active,Not Active,Not Active,Not Active,Not Active
Cn1ccnc1S [METHIMAZOLE],Not Active,Not Active,Not Active,Not Active,Not Active,Not Active,Not Active,Not Active,Not Active,Not Active,Not Active,Not Active,–,–,–,–,–,–,–,–
Cc1oncc1C(=O)Nc1ccc(C(F)(F)F)cc1 [LEFLUNOMIDE],Not Active,Not Active,Not Active,Not Active,Not Active,Not Active,Not Active,Not Active,Not Active,Not Active,Not Active,Not Active,–,–,–,–,–,–,–,–
COc1c(C)c2c(c(O)c1C/C=C(\C)CCC(=O)O)C(=O)OC2 [MYCOPHENOLIC ACID],Not Active,Not Active,Not Active,Not Active,Not Active,Not Active,Not Active,Not Active,Not Active,Not Active,Not Active,Not Active,–,–,–,–,–,–,–,–
